Values quoted from earlier work in patent US7601707B1, “Method for instantly relieving tissue inflammation” (priority 2003, dated 2009).

Experiments:
[1] = in vivo
[2] = dose at which some people begin to feel toxic systemic effects; not considered lethal

SMILES | Half-life [1] | Max dose Mg/Kg [2] | water solubility
CCCN(CC)C(CC)C(=O)Nc1c(C)cccc1C (stereo not drawn) [Etidocaine] | 2.58 h | 8.0 Mg/Kg | 
CCCNC(C)C(=O)Nc1c(C)csc1C(=O)OC (stereo not drawn) [Articaine] | 0.333 h | 7.0 Mg/Kg | 
Cc1cccc(C)c1NC(=O)C1CCCCN1C (stereo not drawn) [Mepivicaine 2%, Mepivicaine] | 1.92 h | 6.6 Mg/Kg | 
C[C@@H]1C[C@H]2[C@@H]3CCC4=CC(=O)C=C[C@]4(C)[C@@]3(F)[C@@H](O)C[C@]2(C)[C@@]1(O)C(=O)CO [Dexamethasone] |  |  | very water-soluble
CCN(CC)CC(=O)Nc1c(C)cccc1C [Lidocaine] |  | 7.0 Mg/Kg | 
CCCNC(C)C(=O)Nc1ccccc1C (stereo not drawn) [Prilocaine] | 1.5 h | 8.0 Mg/Kg | 
CCCCN1CCCCC1C(=O)Nc1c(C)cccc1C (stereo not drawn) [Bupivicaine] | 3.5 h | 1.3 Mg/Kg | 
